Measurements: patent US20060058395A1, “Compounds useful for the treatment of diseases responsive to antiangiogenetic therapy” (NEUROSEARCH A/S, priority 2002, published 2006)
“And” between values parts separate entries of the source, which are not always exact repeats. Identical values can stand only once.

Key:
HUVEC = test: Cell morphology and proliferation assay; assay type: cell-based
Protocol: Cell Morphology and Proliferation Assay
One week before the assay, a vial with HUVEC (passage 1) was thawed and cultured (after a split ratio of 1:3) to confluence (passage 2). The confluent culture of HUVEC was detached by trypsin/EDTA solution, and allowed to adhere and spread at cell density of 10, 50 and 100% confluency on gelatine-coated dishes in M199-HEPES medium supplemented with 10% heat-inactivated NBCS, 10% human serum and penicillin/streptomycin. After 18 h the HUVEC were preincubated with the test compounds for 4 hours. Then the HUVEC were washed and restimulated in the absence or presence of the test compounds and the reference compounds with 2.5 ng/ml FGF-2 in M199-HEPES, penicillin/streptomycin, 10% NBCS, 10% human serum and 0.1% DMSO in triplicate wells for 5 (10% confluency) or 3 days (50 and 100% confluency), with or without the test compounds. The cell number was determined by image analysis (P. Koolwijk, 2001)
To investigate the mode of action of the compound on proliferating and non-proliferating HUVEC, experiments were performed on 10%, 50% and 100% confluent monolayers of HUVEC. The 10% and 50% confluent HUVEC monolayers represent the status of angiogenic endothelial cells able to proliferate and migrate when stimulated. The 100% HUVEC monolayers represent the quiescent character of the endothelial cells in the existing blood vessel. The 4-hour preincubation experiments were performed to be able to discriminate between general toxicity and the induction of apoptosis.

neovascularisation = test: Mouse anti-angiogenesis assay (bFGF sponge implant); assay type: in vivo; conditions: for neovascularisation in mice (percent inhibition): Days 3-9
Protocol: NMRI female mice (SPF Bom:NMRI) weighing 25-27 g were obtained from M&B, Ejby, Lille Skensved, Denmark. They were housed in a facility where light was controlled on a 12 hour light-dark cycle. […] The animals were fed a pelleted rodent diet (Altromin 1324, Brogarden, Denmark) ad libitum and had free access to tap water. All animals were observed daily for clinical signs.
Slow-release pellets containing 400 ng of human basic fibroblast growth factor (Innovative Research of America, Florida, USA) were circular and with a diameter of 1.5 mm. The angiogenic peptide was guarantied by the supplier to be released over a period of 10 days.
The mice were anaesthetized using inhalation anaesthesia (halothane/N2O and oxygen). The skin of the back was shaved using an electric shaver and the skin was disinfected using 70% ethanol. A 5 mm incision was made transversely in close proximity to the shoulder blades and a 2 cm pocket reaching caudally to the pelvic region was created by blunt dissection, carefully separating the skin from the fascie. A polyurethane sponge with the dimension of 8×5×3 mm containing a slow-release pellet of 400 ng bFGF was placed at the caudal end of the pocket and the incision was closed by a single or double invert suture using Perma-Hand Seide 4/0 (Johnson & Johnson, Brussels, Belgium). The animals were treated by an analgesic subcutaneous injection of carprofen 2 mg/kg.
The angiogenic response was quantitated as previously described (Lichtenberg et al., 1997, 1999 & 2002). Briefly, twenty minutes before euthanasia 1 μCi of ^125I-labelled immuno-globulin (Amersham, UK) in 50 μl of 0.9% NaCl was injected intravenously into a tail vein. The animals were euthanised by O2/CO2 asphyxiation and the skin overlying the sponge implant was removed. The sponge implant with the pellet was placed in a plastic vial containing 4% formalin and the ^125I-activity was measured in a γ-counter. Differences in angiogenic response measured as ^125I-activity in cpm were assessed by Student's t-test, grouped data, with P<0.05 regarded as statistically significant. Data was expressed as means±SEM.
Three separate experiments were conducted: Two experiments were performed with Compound a and one experiment was performed with Compound b. In the first two experiments with Compound a, 3 groups each comprising 5 animals was treated orally with Compound a at the dose levels of 0 (saline), 5 and 10 mg/kg/day (experiment 1) and with 20 and 40 mg/kg/day (experiment 2). In the third experiment, 3 groups each comprising 6 animals was treated orally with the vehicle (saline) and 80 mg/kg/day of Compound a. In all experiments the animals were treated from Days 3-9 and killed at day 10.

[1] = tested on: HUVEC, fibroblasts, Mel 57 and T47D cells; test: Cell-specificity assay: incorporation of [3H]thymidine; assay type: cell-based; conditions: bFGF-induced HUVEC and fibroblast proliferation vs NBCS-induced Mel 57 and T47D proliferation; FIG. 1
Protocol: Cell-Specificity Assay: Incorporation of [^3H]Thymidine
Confluent cultures of HUVEC, fibroblasts, Mel 57 and T47D cells were detached by trypsin/EDTA solution, and allowed to adhere and spread at an appropriate cell density on gelatine-coated dishes in M199-HEPES medium or DMEM-HEPES medium both supplemented with 10% heat-inactivated new born calve serum (NBCS) and penidillin/streptomycin. After 18 h the HUVEC and fibroblasts were stimulated with 2.5 ng/ml FGF-2 in M199-HEPES, penicillin/streptomycin, 10% NBCS and 0.1% DMSO in duplicate wells, with or without the test compounds. […] Subsequently, the cells were washed with PBS, [3H]-labelled DNA were fixed with methanol, and precipitated in 5% trichloroacetic-acid, and finally dissolved in 0.5 ml 0.3 M NaOH and counted in a liquid scintillation counter.
All outcome measures were measured in singular, i.e. one measurement per culture well. The proliferation of HUVEC, fibroblast, Mel 57, and T47D tumor cells was expressed as mean±range [3H]-thymidine incorporation (dpm) of duplicate wells.
The percentage of inhibition of FGF-2-induced HUVEC and fibroblast proliferation by the compounds was calculated as follows: [formula] […] The percentage of inhibition of the Mel 57 and T47D tumor cell proliferation by the compounds will be calculated as follows: [formula] […]

B16/F10 melanoma cells = test: Mouse metastasis assay; assay type: in vivo, mice; conditions: for Colony Count (B16 melanoma lung colonies): day 14, mean ± SEM; for % Reduction of melanoma lung colonies vs vehicle: C57BL/6 mice
Source text: Female C57BL/6 mice were supplied and delivered by Charles River UK Ltd. The animals were approximately 6 weeks of age at the start of the study. The body weights at the start of dosing were in the range 10-21 g. The mice were housed in solid-bottomed plastic cages, containing wood shavings, in groups of up to 10. During acclimatization, the rooms and cages were cleaned at regular intervals to maintain hygiene. The mice were fed an expanded rodent diet ad libitum and allowed free access to mains tap water. […] (McKay, 2002).
Data was expressed as means±SEM and analysed using appropriate statistical methods. Statistical significance was assumed when P<0.05.
Two separate studies were conducted: One was performed with Compound a (experiment 1) and one with Compound b (experiment 2). In each study there were 4 treatment groups. The treatment groups were as follows:
Treatments for groups 24 were administered orally, by gavage. The dose volume used was 20 ml/kg for groups 2 and 4 and 15 ml/kg for group 3.
C57BU6 mice were injected intravenously, via a tail vein, with 0.1 ml of a suspension of B16/F10 melanoma cells (approximately 3×10^5 cells/mouse) on day 0. With the exception of the untreated group, animals were dosed orally, by gavage, or intravenously, according to their allocated treatment group once daily, from day −2 to day 10 (13 administrations). The animals were killed on day 14 (14 days after injection of the tumour cells). The lungs from each animal were removed and weighed prior to fixing in Bouin's solution.

[2] = 60 mg/kg p.o. once daily day -2 to day 10, C57BL/6 mice
[3] = 80 mg/kg p.o. once daily day -2 to day 10, C57BL/6 mice

SMILES	inhibition of HUVEC proliferation (HUVEC; 4-hour preincubation, compound then removed for the rest of the stimulation period)	cytotoxicity (HUVEC morphology, floating dead cells) (HUVEC; 100% confluent monolayers, culture periods with the compound)	cytotoxicity (cell death, floating cells in the media) (HUVEC; HUVEC, 4-hour preincubation period)	inhibition of HUVEC proliferation (HUVEC; continuous presence of the compound, 10% confluent monolayers)	inhibition of HUVEC proliferation (HUVEC; continuous presence of the compound, 50% confluent monolayers)	inhibition of HUVEC proliferation (HUVEC; continuous presence of the compound, 100% confluent monolayers)	neovascularisation in mice (percent inhibition) (neovascularisation; 5 mg/kg/day orally) [%]	neovascularisation in mice (percent inhibition) (neovascularisation; 20 mg/kg/day orally) [%]	No Effect Level (NOEL) (neovascularisation; oral, neovascularisation in mice) [mglkg/day]	cell-specificity of inhibition of proliferation [1]	Colony Count (B16 melanoma lung colonies) (B16/F10 melanoma cells; [2])	% Reduction of melanoma lung colonies vs vehicle (B16/F10 melanoma cells; 60 mg/kg p.o.)	Colony Count (B16 melanoma lung colonies) (B16/F10 melanoma cells; [3])	% Reduction of melanoma lung colonies vs vehicle (B16/F10 melanoma cells; 80 mg/kg p.o.)	tolerability (signs of toxicity, body weight gain) (neovascularisation; mice, selected dose levels, oral)
O=C(Nc1ccc([N+](=O)[O-])cc1)Nc1ccc(Br)cc1-c1nnn[nH]1 [Compound a, N-4-Nitrophenyl-N′-[4-bromo-2-(1-H-tetrazol-5-yl)phenyl]urea]	not able to inhibit HUVEC proliferation significantly	no change of HUVEC morphology and the amount of floating dead cells	No signs of any cytotoxicity	clear inhibitory effect	slightly observed	no effect	15	28	5	more potent inhibitor of the bFGF-induced HUVEC and fibroblast proliferation	64.68 ± 2.65	17% and 17.38%	61.85 ± 2.89	21%	–
O=C(Nc1cc(C(F)(F)F)cc(C(F)(F)F)c1)Nc1ccc(Br)cc1-c1nnn[nH]1 [Compound b, N-3,5-Di(trifluoromethyl)phenyl-N′-[4-bromo-2-(1-H-tetrazol-5-yl)phenyl]urea]	–	–	–	–	–	–	–	–	–	–	41.55 ± 9.55	36% and 36.45%	36.65 ± 5.82	44% and 43.97%	no signs of toxicity or changes of the body weight gain
